Molecules are shown by their SMILES.

human MGL from HeLa cells, sequence (Q99685 whole entry): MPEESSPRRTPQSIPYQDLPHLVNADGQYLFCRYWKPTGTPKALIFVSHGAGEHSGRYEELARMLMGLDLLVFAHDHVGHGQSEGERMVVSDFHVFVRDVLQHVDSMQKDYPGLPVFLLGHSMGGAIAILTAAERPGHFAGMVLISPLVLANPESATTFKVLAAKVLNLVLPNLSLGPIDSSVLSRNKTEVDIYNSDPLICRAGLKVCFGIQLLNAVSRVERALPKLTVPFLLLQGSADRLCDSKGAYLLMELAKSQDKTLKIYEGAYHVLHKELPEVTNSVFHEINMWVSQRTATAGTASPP

This assay addresses human MGL from HeLa cells (Homo sapiens (Human), UniProt Q99685). The assay is described as follows: MGL in vitro activity assay ([glycerol-1,3-3H]-oleoyl glycerol hydrolysis, activated carbon filtration). As to conditions: 300 nM [Glycerol-1,3-3H]-oleoyl glycerol, one hour. The format is biochemical. Summed up: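 Endogenous human MGL in HeLa cells/homogenates incubated 1 h with test compounds and 300 nM [glycerol-1,3-3H]-oleoyl glycerol. Released 3H-glycerol passing an activated carbon filter counted as activity; screening at 10 μM compound, top IC50 concentration set empirically.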
For the compound `Cc1cc(C)cc(C2CCC3(CC2)CN(C(=O)[C@H]2C[C@@](C)(O)C2)C3)c1` [Example 147, (7-(3,5-Dimethylphenyl)-2-azaspiro[3.5]nonan-2-yl)((1s,3s)-3-hydroxy-3-methylcyclobutyl)methanone], the IC50 (in general, the point on the concentration scale where inhibition reaches its midpoint) is 6.4 nM. Compound `CCc1cc(OC(F)(F)F)cc(C2CCC3(CC2)CN(C(=O)[C@H]2C[C@@](C)(O)C2)C3)c1` [Example 148, (7-(3-Ethyl-5-(trifluoromethoxy)phenyl)-2-azaspiro[3.5]nonan-2-yl)((1s,3s)-3-hydroxy-3-methylcyclobutyl)methanone] came in with a half-maximal inhibitory concentration (IC50) of 9.4 nM. Then `C[C@]1(O)C[C@@H](C(=O)N2CC3(CCC(c4cc(Cl)cc(OC(F)(F)F)c4)CC3)C2)C1` [Example 149, (7-(3-Chloro-5-(trifluoromethoxy)phenyl)-2-azaspiro[3.5]nonan-2-yl)((1s,3s)-3-hydroxy-3-methylcyclobutyl)methanone], with 1.7 nM.

Compound `CCOc1ccc(C2CCC3(CC2)CN(C(=O)[C@H]2C[C@@](C)(O)C2)C3)cc1C(F)(F)F` [Example 150, (7-(4-Ethoxy-3-(trifluoromethyl)phenyl)-2-azaspiro[3.5]nonan-2-yl)((1s,3s)-3-hydroxy-3-methylcyclobutyl)methanone] showed a concentration for half-maximal inhibition (IC50) of 17 nM. Then `CC(C)c1cccc(C2(O)CCC3(CC2)CN(C(=O)[C@H]2C[C@@](C)(O)C2)C3)c1` [Example 151, ((1s,3s)-3-Hydroxy-3-methylcyclobutyl)(7-hydroxy-7-(3-isopropylphenyl)-2-azaspiro[3.5]nonan-2-yl)methanone], with 4.6 nM; and `CC(C)(C)c1cccc(C2CC3(CCN(C(=O)[C@H]4C[C@@](C)(O)C4)CC3)C2)c1` [Example 153, (2-(3-(tert-Butyl)phenyl)-7-azaspiro[3.5]nonan-7-yl)((1s,3s)-3-hydroxy-3-methylcyclobutyl)methanone], with 22 nM; and `Cc1c(CC2CC3(C2)CN(C(=O)[C@H]2C[C@@](C)(O)C2)C3)cccc1C1CC1` [Example 154, (6-(3-Cyclopropyl-2-methylbenzyl)-2-azaspiro[3.3]heptan-2-yl)((1s,3s)-3-hydroxy-3-methylcyclobutyl)methanone], with 1.7 nM. Then `Cc1c(CC2CC3(C2)CN(C(=O)[C@H]2C[C@@](C)(O)C2)C3)cccc1C(F)(F)F` [Example 155, ((1s,3s)-3-Hydroxy-3-methylcyclobutyl)(6-(2-methyl-3-(trifluoromethyl)benzyl)-2-azaspiro[3.3]heptan-2-yl)methanone], with 3 nM; and `Cc1cccc(CC2CC3(C2)CN(C(=O)[C@H]2C[C@@](C)(O)C2)C3)c1C` [Example 156, (6-(2,3-Dimethylbenzyl)-2-azaspiro[3.3]heptan-2-yl)((1s,3s)-3-hydroxy-3-methylcyclobutyl)methanone], with 11 nM. Next, `C[C@]1(O)C[C@@H](C(=O)N2CC3(CC(Cc4cccc(OC(F)F)c4)C3)C2)C1` [Example 157, (6-(3-(Difluoromethoxy)benzyl)-2-azaspiro[3.3]heptan-2-yl)((1s,3s)-3-hydroxy-3-methylcyclobutyl)methanone]: 29 nM. Compound `CCc1ccccc1CC1CC2(C1)CN(C(=O)[C@H]1C[C@@](C)(O)C1)C2` [Example 158, (6-(2-Ethylbenzyl)-2-azaspiro[3.3]heptan-2-yl)((1s,3s)-3-hydroxy-3-methylcyclobutyl)methanone] registered an IC50 of 9.2 nM. Next, `Cc1cccc(CC2CCC3(CC2)CN(C(=O)[C@H]2C[C@@](C)(O)C2)C3)c1` [Example 159, ((1s,3s)-3-Hydroxy-3-methylcyclobutyl)(7-(3-methylbenzyl)-2-azaspiro[3.5]nonan-2-yl)methanone]: 31 nM. On to `C[C@]1(O)C[C@@H](C(=O)N2CC3(CCC(Cc4cccc(OC(F)F)c4)CC3)C2)C1` [Example 160, (7-(3-(Difluoromethoxy)benzyl)-2-azaspiro[3.5]nonan-2-yl)((1s,3s)-3-hydroxy-3-methylcyclobutyl)methanone], for which the 50% inhibitory concentration (IC50) came to 38 nM.

Values taken from patent US11802111B2, “Cyclobutyl amide monoacylglycerol lipase modulators” (Janssen Pharmaceutica NV, priority 2020, dated 2023).
